In patent publication US5100907A, “Hydantoin esters” (Lonza, Inc., priority 1990, dated 1992):

Assays:
[1] = HLB determination (weighted average method); type: physicochemical
Text: Hydrophilic-Lipophilic Balance or HLB is a means of associating the hydrophilic and lipophilic characteristics between two surfactants. A "weighted average" method was used to determine the HLB of the esters (I), and by comparison of the precursor ester (Ia), in which two emulsifiers of known HLB values along with the test ester were incorporated in a mixture of mineral oil and water. Evaluation and HLB determination of each of a series of prepared emulsion samples were effected by visual inspection.
The HLB of the mixture "m" is calculated from the sum of the HLB contributions of each surfactant, "a", "b", "c", per Equation 2 which describes a system of oil, water, and three surfactants.
Given that [HLB]m, [HLB]a, and [HLB]b, are known, and the ideal amount of "a", "b", and "c" to prepare a perfect emulsion has been determined, then by rearrangement of Eq. 2, the HLB of "c" can be calculated by Equation 3.
To obtain the HLB of the test ester as surfactant "c", a series of formulations was prepared in which the known surfactant sorbitan monostearate (SMS) as "a" and the known surfactant POE 20 sorbitan monostearate (POE 20 SMS) as "b" were varied in amount (wt. %) relative to each other at a constant amount (1 wt. %) of "c", until an optimum emulsion was obtained. Different combinations of "a" and "b" were used to vary the HLB of "c", for emulsifying a 40:56 (wt. %) mixture of paraffin oil and distilled water (totaling 96 wt. %).
To prepare the emulsions, surfactants "a", "b", and "c", and the paraffin oil were combined in a 150 ml beaker and heated slowly with agitation to 70°-80° C. The value of "X" in each formulation was predetermined by rearranging Eq. 3 to solve for X, and then inserting into the equation various [HLB]c values for the test ester (i.e., 2, 3, 4, 5, 6 . . . ). The [HLB]c values chosen reflected a range that would likely contain the actual HLB of the test ester. Hot distilled water (70°-80° C.) was then slowly added with agitation. The total weight of all these reagents was 100 grams. The resulting emulsion was allowed to cool, with continued agitation, until the temperature dropped below 30° C.
A series of emulsions for each test was prepared, one at a time, and then examined as a set. Each sample within the series was evaluated and graded according to the quality of the emulsion by visual examination of droplet size.

Emulsion stability tests = type: physicochemical; conditions: for Classification of Emulsion: 2% ester, 7% myristyl propionate, 91% water
Protocol: Emulsion stability tests were performed on the esters (I), and for comparison on the precursor esters (Ia), to determine the extent to which each stabilized a standardized solution of water and an oil, using a common procedure consisting of homogenizing a mixture containing the test ester (2%), myristyl propionate (7%), and water (91%). While two emulsifiers are normally used to prepare a cosmetic formulation, e.g. one with a high HLB and the other with a low HLB, the test method herein using only one emulsifier, i.e. the test ester, is fully indicative of the emulsifying attributes of these esters.
The tests were performed with emulsions (500 g), prepared by combining the test ester (10.0 g), myristyl propionate (35 g), and distilled water (455 g) in a container and homogenizing the contents for one minute, via a Kika-Werk Ultra-Turrax S D-45 homogenizer. The emulsions were poured into a one pound flint jar, capped, and periodically examined over a 55 day period.

Molecule | Average HLB [1] | HLB Range [1] | Classification of Emulsion (Emulsion stability tests; 7 Days after preparation) | Classification of Emulsion (Emulsion stability tests; 22 Days after preparation) | Classification of Emulsion (Emulsion stability tests; 55 Days after preparation) | Classification of Emulsion (Emulsion stability tests; 2 Hours after preparation) | ability to stabilize emulsions (Emulsion stability tests)
2-(5,5-dimethyl-1,3-diazacyclopentane-2,4-dion-1-yl)-ethyl ester of isostearic acid [Isostearic Non-Methylolated Ester] | 7.0 | 6-7 | 2-Phase | 2-Phase | 2-Phase | – | –
CC(=O)OCCN1C(=O)NC(=O)C1(C)C [Acetic Non-Methylolated Ester, 2-(5,5-dimethyl-1,3-diazacyclopentane-2,4-dion-1-yl)-ethyl ester of acetic acid] | 7.0 | 6-8 | 2-Phase | 2-Phase | 2-Phase | 2-Phase | –
CCCCCCCC/C=C\CCCCCCCC(=O)OCCN1C(=O)NC(=O)C1(C)C [Oleic Non-Methylolated Ester, 2-(5,5-dimethyl-1,3-diazacyclopentane-2,4-dion-1-yl)-ethyl ester of oleic acid] | 8.5 | 8-9 | 2-Phase | 2-Phase | 2-Phase | – | –
CCCCCCCCCCCCCCCCCC(=O)OCCN1C(=O)NC(=O)C1(C)C [Stearic Non-Methylolated Ester, 2-(5,5-dimethyl-1,3-diazacyclopentane-2,4-dion-1-yl)-ethyl ester of stearic acid] | 1.5 | 1-3 | 2-Phase | 2-Phase | 2-Phase | 2-Phase | –
mixture of the 2-(3-hydroxymethyl-5,5-dimethyl-1,3-diazacyclopentane-2,4-dion-1-yl)-ethylesters of caprylic acid and capric acid [Methylolated C8/10 Ester] | – | – | – | – | – | – | generally unable to stabilize an emulsion for more than two hours
